Source: ChEMBL document CHEMBL3351361, “Fragment-based screening of the bromodomain of ATAD2” (J Med Chem, 2014)

Biological target: T1, ATPase family AAA domain-containing protein 2 (Homo sapiens, UniProt Q6PL18)
T1 sequence (Q6PL18 whole entry): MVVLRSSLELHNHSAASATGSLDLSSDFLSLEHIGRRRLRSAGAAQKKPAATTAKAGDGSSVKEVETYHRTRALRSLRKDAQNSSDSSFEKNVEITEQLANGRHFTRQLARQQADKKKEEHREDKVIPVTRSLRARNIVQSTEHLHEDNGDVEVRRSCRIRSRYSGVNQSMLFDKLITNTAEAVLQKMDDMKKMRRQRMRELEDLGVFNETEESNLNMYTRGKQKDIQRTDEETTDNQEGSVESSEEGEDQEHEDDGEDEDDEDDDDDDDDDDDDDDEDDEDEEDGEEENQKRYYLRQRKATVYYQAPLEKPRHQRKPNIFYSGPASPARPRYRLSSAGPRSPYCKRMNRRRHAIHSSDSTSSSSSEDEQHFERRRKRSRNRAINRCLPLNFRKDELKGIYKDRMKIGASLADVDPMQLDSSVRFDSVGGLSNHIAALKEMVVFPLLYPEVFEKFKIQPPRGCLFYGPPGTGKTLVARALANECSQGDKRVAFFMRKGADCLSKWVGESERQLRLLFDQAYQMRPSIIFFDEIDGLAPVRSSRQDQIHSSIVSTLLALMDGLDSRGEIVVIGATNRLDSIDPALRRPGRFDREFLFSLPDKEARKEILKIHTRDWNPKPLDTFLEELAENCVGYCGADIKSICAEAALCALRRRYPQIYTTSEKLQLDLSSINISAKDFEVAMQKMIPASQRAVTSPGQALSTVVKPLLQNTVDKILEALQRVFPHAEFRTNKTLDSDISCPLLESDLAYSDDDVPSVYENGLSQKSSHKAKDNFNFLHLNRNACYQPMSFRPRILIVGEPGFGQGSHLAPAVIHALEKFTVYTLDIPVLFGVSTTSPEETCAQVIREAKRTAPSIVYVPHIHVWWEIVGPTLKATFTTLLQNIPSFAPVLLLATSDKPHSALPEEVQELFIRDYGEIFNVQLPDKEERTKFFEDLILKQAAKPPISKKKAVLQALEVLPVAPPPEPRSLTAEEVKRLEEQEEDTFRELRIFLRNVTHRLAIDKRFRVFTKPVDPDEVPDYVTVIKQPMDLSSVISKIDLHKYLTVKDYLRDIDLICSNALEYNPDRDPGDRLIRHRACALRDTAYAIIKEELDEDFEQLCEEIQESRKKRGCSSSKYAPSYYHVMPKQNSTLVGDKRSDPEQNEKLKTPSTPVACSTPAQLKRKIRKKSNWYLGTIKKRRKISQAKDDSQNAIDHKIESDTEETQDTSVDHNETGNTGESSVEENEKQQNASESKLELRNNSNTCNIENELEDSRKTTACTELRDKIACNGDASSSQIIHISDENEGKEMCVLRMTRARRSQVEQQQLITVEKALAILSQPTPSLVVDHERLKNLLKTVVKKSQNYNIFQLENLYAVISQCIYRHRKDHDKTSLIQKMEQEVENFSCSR
Test: Binding affinity to human ATAD2 (979 to 1108 aa) expressed in Escherichia coli BL21 (DE3) by SOFAST-HMQC NMR spectroscopy

Kd	SMILES
600 µM	Cc1cc2c(cc1N)n(C)c(=O)n2C
350 µM	Nc1cccc(-c2n[nH]c(-c3ccccc3)n2)c1
